Results: US20200131270A1, “COMBINATION USE OF INHIBITOR TARGETING PD-1/PD-L1 AND COX-2 INHIBITOR” (priority 2017, published 2020)

Experiments:
[1] = test system: PBMCs derived from uninfected cattle; experiment: PBMC culture under anti-CD3/anti-CD28 stimulation: cell proliferation (CFSE) and cytokine production (ELISA); settings: 3 days
canine PBMCs = experiment: Cytokine production from canine PBMCs stimulated with SEB and anti-CD28 (ELISA); format: cell-based; settings: PGE2 2.5 μM; SEB + anti-CD28, 3 days
BLV provirus = format: cell-based, cattle
[2] = test system: PBMCs derived from uninfected cattle; experiment: mRNA expression in bovine PBMCs (real-time PCR); format: cell-based
Procedure: Using the synthesized cDNA as a template, real-time PCR was performed with LightCycler480 System II (Roche) in a 10 μl reaction solution containing SYBR Premix DimerEraser (TaKaRa) and 3 pmol each of the primers specific to individual genes. Then, changes in expression levels of individual genes were observed. After 45 cycles of thermal denaturation, annealing and extension, the temperature was raised from 65° C. to 95° C. at 0.1° C./sec for melting curve analysis. The melting temperatures of amplified products were measured to confirm specificity. For each sample, expression levels of genes ACTB and GAPDH were quantified as internal standards. […] Then, real-time PCR was performed using PDL1 specific primers.

[3] = test system: PBMCs derived from uninfected cattle; experiment: PD-L1 protein expression in bovine PBMCs (flow cytometry); format: cell-based; settings: PGE2 added, 24 hours
[4] = PGE2 25 nM, 250 nM and 2,500 nM

CCCCC[C@H](O)/C=C/[C@H]1[C@H](O)CC(=O)[C@@H]1C/C=C\CCCC(=O)O [PGE2, prostaglandin E2]
IFN-γ production [1, 4]: significantly inhibited
proliferation of CD4^+ cells [1, 4]: significantly inhibited
proliferation of CD8^+ cells [1, 4]: significantly inhibited
TNF-α production ([1]; PGE2 2,500 nM): significantly inhibited
IFN-γ production from canine PBMCs (canine PBMCs): significantly decreased
IL-2 production from canine PBMCs (canine PBMCs): significantly decreased
BLV provirus load in PBMCs (BLV provirus): increase significantly
expression level of Foxp3 ([2]; PGE2 2,500 nM, 3 days): significantly increased
expression level of IFNγ ([2]; PGE2 2,500 nM, 3 days): significantly decreased
expression level of IL-2 ([2]; PGE2 2,500 nM, 3 days): significantly decreased
expression level of IL-10 ([2]; PGE2 2,500 nM, 3 days): significantly increased
expression level of STAT3 ([2]; PGE2 2,500 nM, 3 days): significantly increased
expression level of TGFβ1 ([2]; PGE2 2,500 nM, 3 days): significantly increased
expression level of TNFα ([2]; PGE2 2,500 nM, 3 days): significantly decreased
expression of PD-L1 mRNA ([2]; PGE2 added, 24 hours): significantly increased
expression of PD-L1 protein [3]: significantly increased
